In patent publication US8394952B2 (Vertex Pharmaceuticals Incorporated, priority 2006, dated 2013):

These compounds were tested against Plk1 (Homo sapiens, UniProt P53350) (assay: biochemical).
Sequence of Plk1 (P53350 20-338): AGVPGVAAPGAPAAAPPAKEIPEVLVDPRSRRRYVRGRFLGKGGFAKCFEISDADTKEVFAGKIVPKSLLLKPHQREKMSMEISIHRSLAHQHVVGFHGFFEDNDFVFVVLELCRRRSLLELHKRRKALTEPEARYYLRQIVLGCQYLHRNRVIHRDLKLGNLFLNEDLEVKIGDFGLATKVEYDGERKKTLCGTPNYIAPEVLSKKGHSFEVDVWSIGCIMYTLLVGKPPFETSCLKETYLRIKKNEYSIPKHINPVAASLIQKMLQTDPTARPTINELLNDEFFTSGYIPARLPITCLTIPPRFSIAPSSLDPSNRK

Ki, < 10 nM:
COc1cc(C(=O)NC(C)(C)CO)ccc1Nc1ncc2c(n1)N(C1CCCC1)CC(C)(C)C(=O)N2C [Compound I-240, 4-(9-cyclopentyl-5,7,7-trimethyl-6-oxo-6,7,8,9-tetrahydro-5H-pyrimido[4,5-b][1,4]diazepin-2-ylamino)-N-(1-hydroxy-2-methylpropan-2-yl)-3-methoxybenzamide]
COc1cc(C(=O)NCCCO)ccc1Nc1ncc2c(n1)N(C1CCCC1)CC(C)(C)C(=O)N2C [Compound I-241]
COc1cc(C(=O)NC[C@H](O)CO)ccc1Nc1ncc2c(n1)N(C1CCCC1)CC(C)(C)C(=O)N2C [Compound I-242, (S)-4-(9-cyclopentyl-5,7,7-trimethyl-6-oxo-6,7,8,9-tetrahydro-5H-pyrimido[4,5-b][1,4]diazepin-2-ylamino)-N-(2,3-dihydroxypropyl)-3-methoxybenzamide]
COc1cc(C(=O)NCCC(C)O)ccc1Nc1ncc2c(n1)N(C1CCCC1)CC(C)(C)C(=O)N2C (stereo not shown) [Compound I-243, 4-(9-cyclopentyl-5,7,7-trimethyl-6-oxo-6,7,8,9-tetrahydro-5H-pyrimido[4,5-b][1,4]diazepin-2-ylamino)-N-(3-hydroxybutyl)-3-methoxybenzamide]
COc1cc(C(=O)N[C@@H]2CCC[C@H]2O)ccc1Nc1ncc2c(n1)N(C1CCCC1)CC(C)(C)C(=O)N2C [Compound I-244, 4-(9-cyclopentyl-5,7,7-trimethyl-6-oxo-6,7,8,9-tetrahydro-5H-pyrimido[4,5-b][1,4]diazepin-2-ylamino)-N-((1R,2R)-2-hydroxycyclopentyl)-3-methoxybenzamide]
COc1cc(C(=O)NCC2CC2(F)F)ccc1Nc1ncc2c(n1)N(C1CCCC1)CC(C)(C)C(=O)N2C (stereo not shown) [Compound I-245, 4-(9-cyclopentyl-5,7,7-trimethyl-6-oxo-6,7,8,9-tetrahydro-5H-pyrimido[4,5-b][1,4]diazepin-2-ylamino)-N-((2,2-difluorocyclopropyl)methyl)-3-methoxybenzamide]
COc1cc(C(=O)NCC2CCC2)ccc1Nc1ncc2c(n1)N(C1CCCC1)CC(C)(C)C(=O)N2C [Compound I-246, N-(cyclobutylmethyl)-4-(9-cyclopentyl-5,7,7-trimethyl-6-oxo-6,7,8,9-tetrahydro-5H-pyrimido[4,5-b][1,4]diazepin-2-ylamino)-3-methoxybenzamide]
COc1cc(C(=O)NCc2ccncc2)ccc1Nc1ncc2c(n1)N(C1CCCC1)CC1(CC1)C(=O)N2C [Compound I-247, 4-(9′-cyclopentyl-5′-methyl-6′-oxo-5′,6′,8′,9′-tetrahydrospiro[cyclopropane-1,7′-pyrimido[4,5-b][1,4]diazepine]-2′-ylamino)-3-methoxy-N-(pyridin-4-ylmethyl)benzamide]
COc1cc(C(=O)NCc2ccco2)ccc1Nc1ncc2c(n1)N(C1CCCC1)CC1(CC1)C(=O)N2C [Compound I-248, 4-(9′-cyclopentyl-5′-methyl-6′-oxo-5′,6′,8′,9′-tetrahydrospiro[cyclopropane-1,7′-pyrimido[4,5-b][1,4]diazepine]-2′-ylamino)-N-(furan-2-ylmethyl)-3-methoxybenzamide]
COc1cc(C(=O)NCc2cccnc2)ccc1Nc1ncc2c(n1)N(C1CCCC1)CC1(CC1)C(=O)N2C [Compound I-249, 4-(9′-cyclopentyl-5′-methyl-6′-oxo-5′,6′,8′,9′-tetrahydrospiro[cyclopropane-1,7′-pyrimido[4,5-b][1,4]diazepine]-2′-ylamino)-3-methoxy-N-(pyridin-3-ylmethyl)benzamide]
COc1cc(-c2ncc[nH]2)ccc1Nc1ncc2c(n1)N(C1CCCC1)CC(C)(C)C(=O)N2C [Compound I-250, 2-(4-(1H-imidazole-2-yl)-2-methoxyphenylamino)-9-cyclopentyl-5,7,7-trimethyl-8,9-dihydro-5H-pyrimido[4,5-b][1,4]diazepin-6(7H)-one]
COc1cc(C(=O)N[C@H]2CC[C@H](O)CC2)ccc1Nc1ncc2c(n1)N(C1CCCC1)CC1(CC1)C(=O)N2C [Compound I-251, 4-(9′-cyclopentyl-5′-methyl-6′-oxo-5′,6′,8′,9′-tetrahydrospiro[cyclopropane-1,7′-pyrimido[4,5-b][1,4]diazepine]-2′-ylamino)-N-((1R,4R)-4-hydroxycyclohexyl)-3-methoxybenzamide]
COc1cc(C(=O)NC[C@@H]2CCCC[C@@H]2O)ccc1Nc1ncc2c(n1)N(C1CCCC1)CC1(CC1)C(=O)N2C [Compound I-252, 4-(9′-cyclopentyl-5′-methyl-6′-oxo-5′,6′,8′,9′-tetrahydrospiro[cyclopropane-1,7′-pyrimido[4,5-b][1,4]diazepine]-2′-ylamino)-N-(((1S,2S)-2-hydroxycyclohexyl)methyl)-3-methoxybenzamide]
COc1cc(C(=O)NN2CCCC2)ccc1Nc1ncc2c(n1)N(C1CCCC1)CC1(CC1)C(=O)N2C [Compound I-253, 4-(9′-cyclopentyl-5′-methyl-6′-oxo-5′,6′,8′,9′-tetrahydrospiro[cyclopropane-1,7′-pyrimido[4,5-b][1,4]diazepine]-2′-ylamino)-3-methoxy-N-(pyrrolidin-1-yl)benzamide]
COc1cc(C(=O)NC2(CO)CCCC2)ccc1Nc1ncc2c(n1)N(C1CCCC1)CC(C)(C)C(=O)N2C [Compound I-254, 4-(9-cyclopentyl-5,7,7-trimethyl-6-oxo-6,7,8,9-tetrahydro-5H-pyrimido[4,5-b][1,4]diazepin-2-ylamino)-N-(1-(hydroxymethyl)cyclopentyl)-3-methoxybenzamide]
COc1cc(C(=O)NCc2ccccn2)ccc1Nc1ncc2c(n1)N(C1CCCC1)CC(C)(C)C(=O)N2C [Compound I-255, 4-(9-cyclopentyl-5,7,7-trimethyl-6-oxo-6,7,8,9-tetrahydro-5H-pyrimido[4,5-b][1,4]diazepin-2-ylamino)-3-methoxy-N-(pyridin-2-ylmethyl)benzamide]
COc1cc(C2=NCCN2)ccc1Nc1ncc2c(n1)N(C1CCCC1)CC(C)(C)C(=O)N2C [Compound I-256, 9-cyclopentyl-2-(4-(4,5-dihydro-1H-imidazol-2-yl)-2-methoxyphenylamino)-5,7,7-trimethyl-8,9-dihydro-5H-pyrimido[4,5-b][1,4]diazepin-6(7H)-one]
COc1cc(C2=NCC(C)(C)N2)ccc1Nc1ncc2c(n1)N(C1CCCC1)CC(C)(C)C(=O)N2C [Compound I-257, 9-cyclopentyl-2-(4-(5,5-dimethyl-4,5-dihydro-1H-imidazol-2-yl)-2-methoxyphenylamino)-5,7,7-trimethyl-8,9-dihydro-5H-pyrimido[4,5-b][1,4]diazepin-6(7H)-one]
COc1cc(C(=O)N[C@@H]2CC[C@@H](O)C2)ccc1Nc1ncc2c(n1)N(C1CCCC1)CC(C)(C)C(=O)N2C [Compound I-258]
